Here are results for three compounds from patent publication US8946225B2, “Derivatives of 2H pyridazin-3-ones, their preparation and their use as SCD-1 inhibitors” (Pierre Fabre Medicament, priority 2009, dated 2015).

For orientation: melting point means the temperature, or range, at which the solid turns liquid. Usually IC50 stands for the concentration that inhibits the measured activity by half.

One data set concerns the target T1, SCD-1 (Homo sapiens, UniProt O00767).
T1 construct: addition of 125 μg of microsomal fraction of HepG2 cells; host or cells: HepG2 human hepatocarcinoma cells (microsomal fraction)
T1 sequence (O00767 1-359): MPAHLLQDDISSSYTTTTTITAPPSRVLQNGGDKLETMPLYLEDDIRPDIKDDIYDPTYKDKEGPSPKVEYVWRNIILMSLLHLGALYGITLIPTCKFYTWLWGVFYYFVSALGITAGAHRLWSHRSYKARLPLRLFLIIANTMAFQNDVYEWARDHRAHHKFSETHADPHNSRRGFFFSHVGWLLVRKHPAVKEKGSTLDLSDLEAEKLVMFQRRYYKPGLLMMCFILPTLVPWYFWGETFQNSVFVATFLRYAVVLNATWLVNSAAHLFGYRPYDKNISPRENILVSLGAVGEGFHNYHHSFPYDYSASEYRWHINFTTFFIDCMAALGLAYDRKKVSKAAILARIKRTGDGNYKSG
Nature of the data set: Human enzymatic activity of SCD-1 from microsomes of HepG2 cells (conversion of [14C] stearic acid to oleic acid, HPLC). Type of data set: biochemical. As to conditions: microsomal fraction of HepG2 cells, 62 μM stearic acid, 20 minutes at 37° C., vs vehicle 0.1% DMSO; read-out: HSCD-1 (HEPG2) IC50.

Compound `O=C(Nc1ccn[nH]c1=O)N1CCC(Oc2cc(C(F)(F)F)ccc2Cl)CC1` [Example 72, 4-(2-Chloro-5-trifluoromethyl-phenoxy)-piperidine-1-carboxylic acid (3-oxo-2,3-dihydro-pyridazin-4-yl)-amide] yielded a melting point of 158 °C. For the same compound, the IC50 on SCD-1 came out at 10 nM.
For the compound `Cn1ncc(NC(=O)N2CCC(Oc3cc(C(F)(F)F)ccc3Cl)CC2)cc1=O` [Example 73, 4-(2-Chloro-5-trifluoromethyl-phenoxy)-piperidine-1-carboxylic acid (1-methyl-6-oxo-1,6-dihydro-pyridazin-4-yl)-amide], the melting point was 136 °C. Also, on SCD-1, the IC50 was 10 to 100 nM.
On the same counts, the results for `Cn1nc(NC(=O)N2CCC(Oc3cc(C(F)(F)F)ccc3Cl)CC2)ccc1=O` [Example 74, 4-(2-Chloro-5-trifluoromethyl-phenoxy)-piperidine-1-carboxylic acid (1-methyl-6-oxo-1,6-dihydro-pyridazin-3-yl)-amide] are 155 °C and 10 to 100 nM.
